Tests used:
[1] = Stability in acetate buffer pH 5.0 at room temperature via HPLC (UV); type: physicochemical
Experimental: (§1) Stability studies were conducted in PBS and acetate buffer utilizing high performance liquid chromatography for potential drug storage considerations. […]
(§2) All experiments were performed in duplicate and results are presented as the average of two experimental replicates.
(§3) 1.1 Aqueous Stability in PBS and Acetate Buffer via HPLC
(§4) Material and Instrumentation
(§5) HPLC grade acetonitrile (MeCN) […] HPLC grade water (H 2O), and formic acid (FA) were purchased from Fisher Scientific.
(§6) Puradisc 4 mm PTFE (0.45 μm) syringe filters from Cytiva. Gibco ® Dulbecco’s phosphate-buffered saline (DPBS 1X, no calcium, no magnesium, pH = 7.03) and acetate buffer (pH = 5.0, 10 mM) were purchased directly from Thermo Fisher Scientific and Cytiva, respectively.
(§7) Aqueous stability experiments were performed on an Agilent 1100 HPLC equipped with an Agilent G1315B diode array detector, an Agilent G1316A heated column compartment, and a Zorbax Eclipse XDB-C18 (4.6 x 150 mm, 5 μm) column.
(§8) Procedure for Aqueous Stability Experiments
(§9) Each sample was first weighed out in two separate 2.0 mL vials using an analytical balance.
(§10) Unless otherwise specified, the test compounds were then dissolved in the aqueous media (PBS or acetate buffer) at a standard concentration of 1 mg/mL. All mixtures were subsequently sonicated for approximately 30 sec. […]
(§11) min), precipitates observed in sample solutions were filtered with a PTFE syringe filter prior to analysis. Immediately after sample preparation, injection by the HPLC autosampler was performed, which was recorded as the initial time point (t = 0 min). Solutions were then kept in the autosampler at RT and reinjected at designated intervals without additional filtration or sample modification. Remaining prodrug was defined by the area under the curve (AUC) at 254 nm. Aqueous stability was ascertained by calculating the percentage of the parent compound remaining after each time point. Linear regression of the time (x-axis) vs. ln(%remaining) (y-axis) plot afforded the rate constant k (slope = -k). Pseudo first-order half-lives were then calculated by the following equation: t1/2 = 0.693/k.

[2] = Stability in PBS at room temperature via HPLC (UV); type: physicochemical; conditions: phosphate-buffered saline (DPBS)
Experimental: as §1, §2, §3, §4, §5, §6, §7, §8, §9, §10, §11

[3] = PBS stability assay at 37 °C via LC-MS/MS; type: physicochemical; conditions: for half-life at 3 µM / remaining at 2 h, 3 µM: phosphate-buffered saline (DPBS); for half-life at 3 µM: pH 7.03, PBS; for PBS, 37 °C %rem. at 2h (Table S23) / half-life at 3 µM / remaining at 2 h, 3 µM: 37 °C; for remaining at 2 h, 3 µM: pH 7.03, read-out: % Remaining @ 2h, PBS, 37 °C (Tables S25, S26)
[4] = Plasma stability assay at 37 °C via LC-MS/MS, human plasma; type: in vitro ADME; conditions: for half-life at 3 µM: human, plasma;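 for all read-outs here: prodrugs at 3 µM incubated in human plasma at 37 °C, intact prodrug quantified by LC-MS/MS over time, values are means of duplicate runs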
[5] = Aqueous solubility by visual inspection in acetate buffer (pH 5); conditions: for solubility: sodium acetate buffer, pH 5, aqueous buffer, thermodynamic from solid
Experimental: For the solubility assessment, acetate buffer (pH 5) was selected as the media of choice to ensure prodrug stability during analysis.
High aqueous solubility was determined by visual inspection of 5 mg solid material in 0.5 mL
sodium acetate buffer solution. This media was selected to ensure stability of prodrugs during
dissolution in 50 mg/mL aqueous media.

[6] = pH 5, acetate buffer pH 5.0, RT, 1 mg/mL, HPLC 254 nm, read-out: t1/2 in acetate buffer at RT (Tables S5-S8) (converted)
[7] = pH 5, acetate buffer pH 5.0, rt, read-out: t½: pH 5.0, rt (Table S23) (converted)
[8] = pH 7.03, DPBS pH 7.03, RT, 1 mg/mL, HPLC 254 nm, read-out: t1/2 in PBS buffer at RT (Tables S1-S4) (converted)
[9] = pH 7.03, PBS, rt, read-out: t½: PBS, rt (Table S23) (converted)
[10] = 3 µM, LC-MS/MS, read-out: t1/2 in PBS at 37 °C (Tables S14-S17) (converted)
[11] = read-out: PBS, 37 °C t½ (Table S23) (converted)
[12] = read-out: t1/2 (h) PBS, 37 °C (Tables S25, S26) (converted)
[13] = 3 µM, LC-MS/MS, read-out: t1/2 in human plasma at 37 °C (Tables S10-S13, S18) (converted)
[14] = read-out: Plasma, 37 °C t½ (Table S23) (converted)
[15] = pH 5, acetate buffer pH 5.0, rt, HPLC (UV), read-out: Half-life (t½) pH 5.0 rt (converted)
[16] = pH 7.03, PBS, rt, HPLC (UV), read-out: Half-life (t½) PBS rt (converted)
[17] = LC-MS/MS, read-out: Half-life (t½) PBS 37°C (converted)
[18] = LC-MS/MS, read-out: Half-life (t½) Plasma 37°C (converted)

| SMILES | half-life at 1 mg/mL [1, 6] | half-life at 1 mg/mL [1, 7] | half-life at 1 mg/mL [2, 8] | half-life at 1 mg/mL [2, 9] | PBS, 37 °C %rem. at 2h (Table S23) ([3]; PBS) | half-life at 3 µM [3, 10] | half-life at 3 µM [3, 11] | half-life at 3 µM [3, 12] | remaining at 2 h, 3 µM ([3]; PBS) | Plasma, 37 °C %rem. at 2h (Table S23) [4] | half-life at 3 µM [4, 13] | half-life at 3 µM [4, 14] | solubility [5] | half-life at 1 mg/mL [1, 15] | half-life at 1 mg/mL [2, 16] | half-life at 3 µM [3, 17] | half-life at 3 µM [4, 18] | other results |
| --- | --- | --- | --- | --- | --- | --- | --- | --- | --- | --- | --- | --- | --- | --- | --- | --- | --- | --- |
| CNCCN(CC(C)C)C(=O)O/N=C(\C)[C@H]1CC[C@H]2[C@@H]3CCC4=CC(=O)CC[C@]4(C)[C@H]3CC[C@]12C.O=C(O)C(F)(F)F [20f] | > 168 h | > 168 h | 50.7 ± 5.11 h | > 24 h | 55% | 5.07 h | 5.07 h | 5.07 h | 55% | 95% | 4.78 h | 4.78 h | > 10000 µg/mL |  |  |  |  |  |
| CNCCN(CCCN1CCOCC1)C(=O)O/N=C(\C)[C@H]1CC[C@H]2[C@@H]3CCC4=CC(=O)CC[C@]4(C)[C@H]3CC[C@]12C.O=C(O)C(F)(F)F [20i] | > 168 h | > 168 h | 31.2 ± 1.48 h | 31.2 h | 77% | 5.45 h | 5.45 h | 5.45 h | 77% | 57% | 2.09 h | 2.09 h | > 10000 µg/mL |  |  |  |  |  |
| CNCCN(CCN1CCOCC1)C(=O)O/N=C(\C)[C@H]1CC[C@H]2[C@@H]3CCC4=CC(=O)CC[C@]4(C)[C@H]3CC[C@]12C.O=C(O)C(F)(F)F [20j] | 99.4 h | 99.4 h | 21.77 ± 0.19 h | 21.8 h |  |  |  |  |  |  |  |  | > 10000 µg/mL | 99.4 h | 21.8 h |  |  |  |
| C/C(=N\OC(=O)N(C)C[C@@H]1CCN1)[C@H]1CC[C@H]2[C@@H]3CCC4=CC(=O)CC[C@]4(C)[C@H]3CC[C@]12C [20o] | > 168 h | > 168 h | 6.3 ± 0.09 h | 6.3 h | 14% | 0.9 h | 0.9 h |  |  | 1% | 0.29 h | 0.29 h | > 10000 µg/mL | > 168 h | 6.3 h | 0.9 h | 0.29 h |  |
| C/C(=N\OC(=O)N(C)[C@H](C)[C@@H]1CCCN1)[C@H]1CC[C@H]2[C@@H]3CCC4=CC(=O)CC[C@]4(C)[C@H]3CC[C@]12C.O=C(O)C(F)(F)F [20p] |  |  |  |  |  | 0.61 h |  |  |  |  |  |  |  |  |  |  |  | Prodrug stability / self-immolation in buffer, in words ([3]; PBS): unstable compound; t1/2 in human plasma at 37 °C (Tables S10-S13, S18) ([4]; 3 µM, LC-MS/MS): unstable during; Stability in aqueous media during solubility assessment, in words ([5]; aqueous media (acetate buffer)): poor stability |
| CNCCN(C(=O)O/N=C(\C)[C@H]1CC[C@H]2[C@@H]3CCC4C[C@H](O)CC[C@]4(C)[C@H]3CC[C@]12C)C1CCC1.O=C(O)C(F)(F)F (stereo partly drawn) [21d] |  |  |  |  | 38% |  | 1.69 h |  |  | 16% |  | 0.76 h | > 5000 µg/mL |  |  | 1.69 h | 0.76 h | half-life at 3 µM ([3]; unit not given (h in Table S23), read-out: t1/2 of allopregnanolone prodrugs in PBS at 37 °C (Table S22) (converted)): 1.69 h; half-life at 3 µM ([4]; unit not given (h in Table S23), read-out: t1/2 of allopregnanolone prodrugs in human plasma at 37 °C (Table S21) (converted)): 0.76 h |
| CNCCN(C(=O)O/N=C(\C)[C@H]1CC[C@H]2[C@@H]3CCC4=CC(=O)CC[C@]4(C)[C@H]3CC[C@]12C)C1CCCC1.O=C(O)C(F)(F)F [20e] | > 168 h | > 168 h | 10.7 ± 0.15 h | 10.7 h | 34% | 1.74 h | 1.74 h | 1.74 h | 34% | 76% | 4.02 h | 4.02 h | > 10000 µg/mL | > 168 h | 10.7 h | 1.74 h | 3.09 h |  |

— paper PMC12516379, “Rotamer-Controlled Self-Immolative Linkers Enable Tunable Release of Neurosteroid Oxime Prodrugs” (ACS Medicinal Chemistry Letters, 2025)
